Source: patent publication US7951406B2, “Therapeutic compounds isolated from Calomeria amaranthoides” (Caroline Van Haaften, priority 2004, dated 2011)

Experiments:
[1] = test system: human skin fibroblasts; assay: Cell viability by photomicrography, comparison with Cisplatinum and Docetaxol, fibroblasts; details: 10 μg and 100 μg, compared with 1 μg; 48 hours
[2] = test system: ovarian cancer cell line JC; details: 48 hours

SMILES	cell viability in fibroblasts [1]	cytotoxicity in JC cells, treatments compared ([2]; 10 μg dosage level)	resistance of JC cells [2]
N.N.[Cl][Pt][Cl] [Cisplatinum]	greater reduction in cell viability	–	–
CC(=O)O[C@@]12CO[C@@H]1C[C@H](O)[C@@]1(C)C(=O)[C@H](O)C3=C(C)[C@@H](OC(=O)[C@H](O)[C@@H](NC(=O)OC(C)(C)C)c4ccccc4)C[C@@](O)([C@@H](OC(=O)c4ccccc4)[C@H]21)C3(C)C [Docetaxol]	greater reduction in cell viability	less cytotoxic than either the Calomeria extract or Cisplatinum	more resistant
